According to the supplement of paper PMC6045584:
± gives the standard deviation of the averaged measurements.

Columns and labels:
AFATINIB [1] = compound: T1, CN(C)C/C=C/C(=O)Nc1cc2c(Nc3ccc(F)c(Cl)c3)ncnc2cc1O[C@H]1CCOC1 [AFATINIB]; experiment: area under dose-response curve of surviving fraction (unscaled, Aref=0) (surviving fraction x log10(nM)); higher = more resistant; conditions: exposure time: 5 days; dose range 0.5-1000 nM
In short: (§1)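 Surviving fractions were fitted by 3-parameter logistic regression in the drc R package to give dose-response survival curves. They came from tumour cell lines treated for five days with eight inhibitor concentrations from 0.5 to 1000 nM and read by CellTiter-Glo luminescence against DMSO-only wells. The area under the curve is the unscaled activity area. It was calculated over log10 dose with Aref = 0.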

SNX-5422 [2] = compound: T2, CC1(C)CC(=O)c2c(C(F)(F)F)nn(-c3ccc(C(N)=O)c(N[C@H]4CC[C@H](OC(=O)CN)CC4)c3)c2C1 [SNX-5422]; experiment: as above; conditions: exposure time: 5 days; dose range 0.5-1000 nM
In short: as §1

MDV3100 [3] = compound: T3, CNC(=O)c1ccc(N2C(=S)N(c3ccc(C#N)c(C(F)(F)F)c3)C(=O)C2(C)C)cc1F [MDV3100]; experiment: as above; conditions: exposure time: 5 days; dose range 0.5-1000 nM
In short: as §1

SAPACITABINE [4] = compound: T4, CCCCCCCCCCCCCCCC(=O)Nc1ccn([C@@H]2O[C@H](CO)[C@@H](O)[C@@H]2C#N)c(=O)n1 [SAPACITABINE]; experiment: as above; conditions: exposure time: 5 days; dose range 0.5-1000 nM
In short: as §1

[5] = compound: Cn1cc(C2=Nc3cc(NC(=O)C(N)C4CCCCC4)cc4c3C2=CNNC4=O)cn1; experiment: as above; conditions: exposure time: 5 days; dose range 0.5-1000 nM
In short: as §1

TIOGUANINE [6] = compound: T5, Nc1nc2[nH]cnc2c(=S)[nH]1 [TIOGUANINE]; experiment: as above; conditions: exposure time: 5 days; dose range 0.5-1000 nM
In short: as §1

CANERTINIB [7] = compound: T6, C=CC(=O)Nc1cc2c(Nc3ccc(F)c(Cl)c3)ncnc2cc1OCCCN1CCOCC1 [CANERTINIB]; experiment: as above; conditions: exposure time: 5 days; dose range 0.5-1000 nM
In short: as §1

BI-2536 [8] = compound: T7, CC[C@@H]1C(=O)N(C)c2cnc(Nc3ccc(C(=O)NC4CCN(C)CC4)cc3OC)nc2N1C1CCCC1 [BI-2536]; experiment: as above; conditions: exposure time: 5 days; dose range 0.5-1000 nM
In short: as §1

AFATINIB [9] = compound: T1, AFATINIB; experiment: surviving fraction relative to DMSO-only wells; higher = less growth inhibition; conditions: exposure time: 5 days
In short: (§2)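 Tumour cell lines in log phase were plated in 384-well plates at 250–500 cells per well, then, after 24 hours, exposed continuously for five days to inhibitors at 0.5, 1, 5, 10, 50, 100, 500 and 1000 nM. Viability came from CellTiter-Glo luminescence, and surviving fraction is that signal normalised to the median of DMSO-only wells. Plates were read after 10 minutes at room temperature, and each line, screened three times, was kept only when replicate Pearson r was >0.7 and median Z' was >0.3.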

SNX-5422 [10] = compound: T2, SNX-5422; experiment: as above; conditions: exposure time: 5 days
In short: as §2

MDV3100 [11] = compound: T3, MDV3100; experiment: as above; conditions: exposure time: 5 days
In short: as §2

SAPACITABINE [12] = compound: T4, SAPACITABINE; experiment: as above; conditions: exposure time: 5 days
In short: as §2

[13] = compound: Cn1cc(C2=Nc3cc(NC(=O)C(N)C4CCCCC4)cc4c3C2=CNNC4=O)cn1; experiment: as above; conditions: exposure time: 5 days
In short: as §2

TIOGUANINE [14] = compound: T5, TIOGUANINE; experiment: as above; conditions: exposure time: 5 days
In short: as §2

CANERTINIB [15] = compound: T6, CANERTINIB; experiment: as above; conditions: exposure time: 5 days
In short: as §2

BI-2536 [16] = compound: T7, BI-2536; experiment: as above; conditions: exposure time: 5 days
In short: as §2

Test System: CAL51 BREAST
- area under dose-response curve (AFATINIB [1]): 3.19
- area under dose-response curve (SNX-5422 [2]): 1.93
- area under dose-response curve (MDV3100 [3]): 3.24
- area under dose-response curve (SAPACITABINE [4]): 2.32
- area under dose-response curve [5]: 2.86
- area under dose-response curve (TIOGUANINE [6]): 3.31
- area under dose-response curve (CANERTINIB [7]): 3.08
- area under dose-response curve (BI-2536 [8]): 0.68
- surviving fraction (AFATINIB [9]; 0.5 nM): 0.97 ± 0.048
- surviving fraction (AFATINIB [9]; 1 nM): 1.02 ± 0.022
- surviving fraction (AFATINIB [9]; 5 nM): 1.002 ± 0.0031
- surviving fraction (AFATINIB [9]; 10 nM): 0.977 ± 0.033
- surviving fraction (AFATINIB [9]; 50 nM): 1.04 ± 0.019
- surviving fraction (AFATINIB [9]; 100 nM): 1.02 ± 0.028
- surviving fraction (AFATINIB [9]; 500 nM): 0.963 ± 0.085
- surviving fraction (AFATINIB [9]; 1000 nM): 0.682 ± 0.06
- surviving fraction (SNX-5422 [10]; 0.5 nM): 0.902 ± 0.075
- surviving fraction (SNX-5422 [10]; 1 nM): 0.973 ± 0.016
- surviving fraction (SNX-5422 [10]; 5 nM): 1.02 ± 0.036
- surviving fraction (SNX-5422 [10]; 10 nM): 1 ± 0.034
- surviving fraction (SNX-5422 [10]; 50 nM): 0.261 ± 0.036
- surviving fraction (SNX-5422 [10]; 100 nM): 0.077 ± 0.0036
- surviving fraction (SNX-5422 [10]; 500 nM): 0.0237 ± 0.00058
- surviving fraction (SNX-5422 [10]; 1000 nM): 0.0263 ± 0.0015
- surviving fraction (MDV3100 [11]; 0.5 nM): 0.969 ± 0.025
- surviving fraction (MDV3100 [11]; 1 nM): 0.944 ± 0.014
- surviving fraction (MDV3100 [11]; 5 nM): 0.985 ± 0.016
- surviving fraction (MDV3100 [11]; 10 nM): 0.976 ± 0.013
- surviving fraction (MDV3100 [11]; 50 nM): 0.984 ± 0.029
- surviving fraction (MDV3100 [11]; 100 nM): 1.05 ± 0.042
- surviving fraction (MDV3100 [11]; 500 nM): 0.978 ± 0.11
- surviving fraction (MDV3100 [11]; 1000 nM): 0.979 ± 0.082
- surviving fraction (SAPACITABINE [12]; 0.5 nM): 0.878 ± 0.1
- surviving fraction (SAPACITABINE [12]; 1 nM): 0.838 ± 0.14
- surviving fraction (SAPACITABINE [12]; 5 nM): 0.977 ± 0.074
- surviving fraction (SAPACITABINE [12]; 10 nM): 0.929 ± 0.1
- surviving fraction (SAPACITABINE [12]; 50 nM): 0.789 ± 0.0083
- surviving fraction (SAPACITABINE [12]; 100 nM): 0.533 ± 0.13
- surviving fraction (SAPACITABINE [12]; 500 nM): 0.112 ± 0.022
- surviving fraction (SAPACITABINE [12]; 1000 nM): 0.0657 ± 0.014
- surviving fraction ([13]; 0.5 nM): 0.889 ± 0.037
- surviving fraction ([13]; 1 nM): 0.973 ± 0.041
- surviving fraction ([13]; 5 nM): 0.945 ± 0.052
- surviving fraction ([13]; 10 nM): 0.903 ± 0.037
- surviving fraction ([13]; 50 nM): 0.962 ± 0.079
- surviving fraction ([13]; 100 nM): 0.875 ± 0.048
- surviving fraction ([13]; 500 nM): 0.484 ± 0.0085
- surviving fraction ([13]; 1000 nM): 0.276 ± 0.026
- surviving fraction (TIOGUANINE [14]; 0.5 nM): 0.984 ± 0.03
- surviving fraction (TIOGUANINE [14]; 1 nM): 0.965 ± 0.017
- surviving fraction (TIOGUANINE [14]; 5 nM): 0.999 ± 0.018
- surviving fraction (TIOGUANINE [14]; 10 nM): 1 ± 0.031
- surviving fraction (TIOGUANINE [14]; 50 nM): 1.03 ± 0.049
- surviving fraction (TIOGUANINE [14]; 100 nM): 1.06 ± 0.038
- surviving fraction (TIOGUANINE [14]; 500 nM): 0.992 ± 0.051
- surviving fraction (TIOGUANINE [14]; 1000 nM): 0.979 ± 0.026
- surviving fraction (CANERTINIB [15]; 0.5 nM): 0.937 ± 0.078
- surviving fraction (CANERTINIB [15]; 1 nM): 0.92 ± 0.061
- surviving fraction (CANERTINIB [15]; 5 nM): 0.983 ± 0.053
- surviving fraction (CANERTINIB [15]; 10 nM): 0.976 ± 0.018
- surviving fraction (CANERTINIB [15]; 50 nM): 0.974 ± 0.038
- surviving fraction (CANERTINIB [15]; 100 nM): 1.05 ± 0.083
- surviving fraction (CANERTINIB [15]; 500 nM): 0.87 ± 0.014
- surviving fraction (CANERTINIB [15]; 1000 nM): 0.481 ± 0.015
- surviving fraction (BI-2536 [16]; 0.5 nM): 0.966 ± 0.057
- surviving fraction (BI-2536 [16]; 1 nM): 0.87 ± 0.062
- surviving fraction (BI-2536 [16]; 5 nM): 0.0793 ± 0.0041
- surviving fraction (BI-2536 [16]; 10 nM): 0.0425 ± 0.0026
- surviving fraction (BI-2536 [16]; 50 nM): 0.0333 ± 0.0013
- surviving fraction (BI-2536 [16]; 100 nM): 0.0258 ± 0.0033
- surviving fraction (BI-2536 [16]; 500 nM): 0.0175 ± 0.00087
- surviving fraction (BI-2536 [16]; 1000 nM): 0.0207 ± 0.00076
